# Experimental data taken from US7674613B2, “Live bacterium preparation containing lactic acid bacterium as active ingredient and food containing lactic acid bacterium” (Frente International Co., Ltd., priority 2002, dated 2010).
# Assays:
# [1] = test system: Streptococcus mutans MT 8148 strain; test: Test Example 4: number of viable S. mutans with oligosaccharides and sugar alcohols, with or without L. salivarius TI 2711; format: cell-based; settings: 5% addition, aerobic 37° C. 24 hours
# Description: (§1) 5% each of xylitol, erythritol and sorbitol as sugar alcohols, and fructo-oligosaccharide and kestose as oligosaccharides were each added to a liquid medium consisting of GAM bouillon (Nissui) as a base medium and containing 0.7% glucose and 3% sucrose, and each medium was inoculated with 1×10^7 CFU/ml of the Streptococcus mutans MT 8148 strain. Then, aerobic culture was performed at 37° C. for 24 hours.
# (§2) On the other hand, 1×10^7 CFU/ml of the Streptococcus mutans MT 8148 strain was inoculated to the aforementioned medium containing 5% of each sugar alcohol or oligosaccharide, and 1×10^7 CFU/ml of the Lactobacillus salivarius TI 2711 strain was further inoculated to the medium. Then, aerobic culture was similarly performed at 37° C. for 24 hours. After completion of the culture, the cell numbers of Streptococcus mutans MT 8148 strain and amounts of insoluble glucan were determined (according to the methods described in Test Example 1) for the both types of culture.
# [2] = test system: Streptococcus mutans MT 8148 strain; test: Test Example 4: insoluble glucan production by S. mutans with oligosaccharides and sugar alcohols, with or without L. salivarius TI 2711; format: cell-based
# Description: as §1, §2
# [3] = With inoculation of L. salivarius TI 2711 1×10^7 CFU/ml
# [4] = Without inoculation of L. salivarius, control base medium 4.0 × 10^5
SMILES,"Number of viable cells of S. mutans (CFU/ml) [1, 3]","Number of viable cells of S. mutans (CFU/ml) [1, 4]","inhibition of the production of insoluble glucan ([2]; erythritol alone, 5% addition)","inhibition of the production of insoluble glucan ([2]; mixed culture inoculated with Lactobacillus salivarius TI 2711 strain, amount without inoculation taken as 100%)"
"OC[C@@H](O)[C@@H](O)CO [Erythritol, erythritol]",1.0 × 10^4 CFU/ml,1.0 × 10^5 CFU/ml,about 60%,90%
"OC[C@H]1O[C@@](CO)(OC[C@@]2(O[C@H]3O[C@H](CO)[C@@H](O)[C@H](O)[C@H]3O)O[C@H](CO)[C@@H](O)[C@@H]2O)[C@@H](O)[C@@H]1O [Kestose, kestose]",2.0 × 10^5 CFU/ml,5.0 × 10^5 CFU/ml,,
"OC[C@@H](O)[C@@H](O)[C@H](O)[C@@H](O)CO [Sorbitol, sorbitol]",3.0 × 10^5 CFU/ml,4.0 × 10^5 CFU/ml,,
"OC[C@@H](O)[C@H](O)[C@@H](O)CO [Xylitol, xylitol]",5.0 × 10^5 CFU/ml,4.0 × 10^5 CFU/ml,,
